This is an account of results in patent US10889812B2, “Short non-coding protein regulatory RNAs (sprRNAs) and methods of use” (University of Maryland, Baltimore, priority 2014, dated 2021).

In data set [1] the test system is p-ERM. Nature of the data set: p-ERM protein levels in HBE4 cells (Western blot). The data set is classed as cell-based, human. The following applies: following treatment. Background: A western blot detects proteins with antibodies after separation by electrophoresis.
Data set [2] relates to HBE4 cells. Nature of the data set: Cell cycle analysis by flow cytometry, HBE4 cells synchronized at S phase. The data set is classed as cell-based, human. The following applies: measured every 2 hrs, vs Scr. The protocol: We then wanted to determine whether piR-L-163 (SEQ ID NO:282) plays a functional role in human bronchial epithelial cells. We treated HBE4 cells as well as primary normal human bronchial epithelial (NHBE) cells with piR-L-163 complementary DNA oligonucleotides (Ant-163) (SEQ ID NO:496) or RNA oligonucleotides (Ant-163R) (SEQ ID NO:497) in the experiment. […] Cell cycle distributions were measured every 2 hrs.
Cell cycle distribution was analyzed by Flow Cytometry (Becton-Dickinson). Cells were synchronized in growth factor-free Keratinocyte-SFM with 2 mM Thymidine (Catalog No. T1895, Sigma-Aldrich) for 24 hrs. Transfection is performed using Lipofectamine™ RNAiMAX (Invitrogen) according to its manual, and the final concentration of annealed oligo RNAs is 400 nM. Four hour after transfection, culture medium was replaced by complete Keratinocyte-SFM supplemented with L-Glutamine, prequalified human recombinant EGF 1-53 and BPE. Cells were harvested at different time points, washed in phosphate-buffer saline (PBS), fixed with ice-cold 70% ethanol, and strained in PI/RNase solution (BD Pharmigen). The samples were analyzed on a FACScan flow cytometer in combination with BD lysis software (Becton-Dickinson).

The test system of data set [3] is HBE4 cells as well as primary normal human bronchial epithelial (NHBE) cells. Nature of the data set: Cell viability and cell growth curve assay (MTT, trypan blue). The format is cell-based. The following applies: compared with cells treated with scrambled DNA oligonucleotides (Scr). The protocol:
We then wanted to determine whether piR-L-163 (SEQ ID NO:282) plays a functional role in human bronchial epithelial cells. We treated HBE4 cells as well as primary normal human bronchial epithelial (NHBE) cells with piR-L-163 complementary DNA oligonucleotides (Ant-163) (SEQ ID NO:496) or RNA oligonucleotides (Ant-163R) (SEQ ID NO:497) in the experiment. […] Cell cycle distributions were measured every 2 hrs. […]
Cell viability and cell growth curve assay were determined by MTT assay and trypan blue exclusion assay, respectively as described previously (Kirino, Y. & Mourelatos, Z. Mouse Piwi-interacting RNAs are 2′-O-methylated at their 3′ termini Nat Struct Mol Biol. 14, 347-348 (2007)). BrieflySpecifically, MTT (5 mg/ml) was added into cells and incubated at culture condition for 3 hours, removed the medium carefully and dissolved formazan in DMSO, assay was used to assess the surviving cells and OD values were measured using Microplate Reader Manager (Bio Rad) at wavelengths of 570/690 nm. […] Unstained viable cells were counted in hemocytometer chamber under microscope. […]

For data set [4], the system named is ERM proteins. Nature of the data set: Pull down with biotin-conjugated piR-L-163 from HBE4 cell lysates, LC-MS-MS. The data set is classed as binding, human. To be noted: vs Scr control RNA. An excerpt:
Because of the unexpected cellular localizations of piR-L-163 during cell cycle progression, we suspected that piR-L-163 plays a biological role through interaction with proteins. To identify potential piR-L-163 interacting proteins, biotin-conjugated piR-L-163 RNA oligonucleotides were used as a bait to pull down cellular binding proteins in HBE4 cells.
For IP using piR-L-163, synthesized biotin labeled RNA oligonucleotides (/5′Biosg/[…]-3′) (SEQ ID NO:502) was used and scrambled RNA (/5′Biosg/[…]-3′) (SEQ ID NO:503) used as a control.
Protein extracts from 1×10^7 cells using HKMG lysis buffer (10 mM HEPES pH 7.9, 100 mM KCL, 5 mM MgCl2, 10% glycerol, 1 mM dithiothreitol, 0.1% NP40) with protease and phosphatase inhibitors (Roche) were incubated with 1 μg biotin-labeled RNA for 16 hr at 4° C. with rotation after pre-clearing with streptavidin beads, then coupled to 10 μl 50% of streptavidin agarose beads (Sigma-Aldrich). After incubation, the biotin-labeled oligonucleotide-coupled streptavidin beads were washed four times with HKMG lysis buffer. Samples were denatured in SDS protein loading buffer before running on a SDS-acrylamide gel.
The target band for mass spectrometry was performed. […]
The processed samples were analyzed using a nanoscale reverse-phase liquid chromatography using an Xtreme Simple nanoLC system (CVC/Q24 MicroTech). […]

For “Ant-163: DNA sequence antisense to piR-L-163, SEQ ID NO:496, 5′-GGTCAGAGAATCAAAGTAACATCATGATAT-3′ (DNA, backbone and methylation of C not given here)”, the p-ERM protein levels result in data set [1] was “not significantly changed”. For the same substance, the cell cycle distribution result in data set [2] was “accelerated DNA synthesis and G2-M accumulation”. In addition, the “cell viability and proliferation” value in data set [3] was “enhanced cell viability and proliferation”.

As for “piR-L-163: sprRNA, SEQ ID NO:282; piRNA-L aligned to intron 10 of LAMC2; AUAUCAUGAUGUUACUUUGAUUCUCUGACC with 3′ 2′-O-methylation (listed as RNA, chemistry not fully specified; listed as Homo sapiens)”, in data set [4], the “binding to ERM proteins (pull down)” value is listed as “binds to ERM proteins”.
